Several values for one entry are separate records, joined by “and”; a condition that tells them apart may be missing. Identical values can stand only once.
Legend:
[1] = Multicomponent pharmacokinetics in rat plasma after i.v. safflower injection (SI); conditions: for AUC(0-inf) / AUC(0-t) / Cmax / MRT inf / MRT last / Vd / clearance / half-life: male, Sprague-Dawley, rat, iv; for detected mean maximum plasma concentration: rats, after administration of 4 ml/kg of SI
Protocol: The animal experiments were approved by the Animal Care and Use Committee of the College of Animal Science (College of Bee Science), Fujian Agriculture and Forestry University (Approval Number: PZCASFAFU21012). 250 ± 20 g of male Sprague-Dawley (SD) rats were provided by Lab Animal Center in Fujian Medical University (Fuzhou, China).
Ten rats were divided into three groups (Low dose group, n = 4; medium and high groups, n = 3, respectively). […] For each rat, 2 ml of physiological saline was supplemented after 30 min sampling via intraperitoneal injection. The plasma samples were obtained by centrifugation at 3,000 rpm for 10 min and stored at −20°C until analysis.
Clear supernatant (5 μl) was injected into HPLC-MS for bioanalysis.
The sample was separated on a RD-C18 column (4.6 mm × 50 mm, 3.5 μm, Zhongpu Develop, China). The mobile phase incudes water with 0.1% acetic acid (A) and acetonitrile (B). […] The column temperature, flow rate and injection volume were set at 30°C, 0.5 ml/min and 5 μl, respectively.
Non-compartmental model was used to calculate the PK parameters by DAS 3.0 software (Chinese Pharmacologic Society, Beijing, China). A single-tailed t-test was carried out in the study.

[2] = test system: H9c2 cardiomyocytes injured by H2O2; assay: Protection of cardiomyocytes injured by H2O2 (MTT); format: cell-based; conditions: for cell viability vs. model group: pretreated 24 h, 250 μM H2O2 2 h
Protocol: H9c2 cardiomyocytes obtained from Cell Bank of the Chinese Academy of Sciences (Shanghai, China) were cultured in DMEM (high glucose) supplemented with 1% P/S and 15% FBS in 5% CO2 at 37°C. The cells were collected with 0.25% trypsin, followed by re-seeding in 96-well multiplates with a density of 5×10^3 cells per well. The cell experiments were grouped as follows: normal group, model group (H2O2), administration groups and positive control groups (N-Acetyl-L-cysteine, NAC). […] After that, cells were incubated with 0.5 mg/ml of MTT for 4 h under standard condition, followed by addition of 150 µl DMSO into every well. The cell supernatants were finally removed and the optical density (OD) was recorded at 570 nm using a microplate reader (Thermo Fisher Scientific, United States). The protection rate of the compounds on H9c2 cardiomyocytes was calculated as (OD valueadministration group (or NAC group)-OD valuemodel group)/(OD valuenormal group-OD valuemodel group) ×100%.

[3] = test system: H9c2 cardiomyocytes injured by H2O2; assay: TMT quantitative proteomics of H2O2-injured cardiomyocytes; format: cell-based; conditions: 168 μM
Protocol: The procedures for cell culture, group and administration are similar to those in “2.7. […] Briefly, the difference is that H9c2 cells were seeded and cultured in a culture flask with a bottom area of 25 cm^2 with a density 1×10^5 cells/ml. After treatment, about 3×10^7 cells per group were collected for the next quantitative proteomics investigation, which was done by Jingjie PTM Biolabs (Hangzhou, China). All the procedures for quantitative proteomics can be found in the section of “5. Quantitative proteomics” of the Supplementary Material.
The quantitative proteomics study was carried out according to our previous report ([Li et al., 2022]). Relative quantitative values of proteins in two samples were compared via t-test. […] The identified difference proteins between groups were subjected further to principal component analysis (PCA). […] The subcellular structure location was analyzed using these proteins as objectives.

[4] = Stability of 6 compounds of SI in rat plasma; conditions: for 10h in auto-sampler vials RE: extracted rat plasma; for 6h at room temperature RE / Freeze-thaw stability (three cycles) RE / Long-term stability (-80℃,15 days) RE: rat plasma
Excerpt: The LC-MS method was validated by linearity, limits of detection (LOD), limits of quantification (LOQ), precision, accuracy, extraction recovery, matrix effect and stability of the 6 ingredients in rat plasma. Calibration curves were plotted using weighted linear regression of the peak area ratio of analyte to the IS against the corresponding nominal concentration of the analyte. LOD and LOQ were defined as the detectable concentration at which the ratio of signal to noise was more than 3 and 10, respectively. Intra- and inter-day accuracy and precision were assessed by detecting quality control (QC) samples using five replicates of rat samples at three concentration levels on one or three validation days, respectively. Accuracy and precision were expressed by relative error (RE) and relative standard deviation (RSD), respectively. The extraction recovery and matrix effect of the 6 components at above-mentioned three concentration levels were determined. Stability was assessed under the condition of placing un-treated plasma samples at room temperature for 6 h, and extracted plasma samples in auto-sampler for 10 h, as well as placing plasma samples within freeze-thaw three cycles and at −80 °C for 15 days.

[5] = Stability in diluted SI at room temperature; conditions: analyzed at 0, 2, 4, 8, 12, 24, and 48 h
[6] = 1 h after administration (2 ml/kg of SI), preliminary test

## COc1cc(/C=C/CO)cc(OC)c1O[C@@H]1O[C@H](CO)[C@@H](O)[C@H](O)[C@H]1O [SYR, syringin]
[1]; [6]
  detection in rat plasma: can be detected
[1]; after administration of SI
  systematic exposure of SYR lower than that of HSYA: over 10 times
[1]; in vivo, 1 ml/kg
  AUC(0-inf): 116 ± 70.5 ng·h/mL
  AUC(0-t): 101 ± 57.4 ng·h/mL
  Cmax: 260 ± 59.4 ng/mL
  MRT inf: 22.8 ± 9.6 min
  MRT last: 16.2 ± 6 min
  Vd: 0.21 ± 0.07 L/kg
  clearance: 11.5 mL/min/kg
  half-life: 15 ± 5.4 min
[1]; in vivo, 2 ml/kg
  AUC(0-inf): 368 ± 78.7 ng·h/mL
  AUC(0-t): 363 ± 81.5 ng·h/mL
  Cmax: 465 ± 42.9 ng/mL
  MRT inf: 45 ± 8.4 min
  MRT last: 41.4 ± 4.2 min
  Vd: 0.31 ± 0.2 L/kg
  clearance: 5.67 mL/min/kg
  half-life: 36.6 ± 15 min
[1]; in vivo, 4 ml/kg
  AUC(0-inf): 592 ± 96.6 ng·h/mL
  AUC(0-t): 586 ± 94.4 ng·h/mL
  Cmax: 925 ± 38.5 ng/mL
  MRT inf: 42.6 ± 13.8 min
  MRT last: 40.2 ± 12.6 min
  Vd: 0.31 ± 0.11 L/kg
  clearance: 6.83 mL/min/kg
  half-life: 31.8 ± 13.8 min
[1]
  detected mean maximum plasma concentration: 0.93 μg/mL and 2.5 μM
[2]; 5 μM
  cell viability vs. model group: higher cell viability than the model group
[2]; 10 μM
  cell viability vs. model group: higher cell viability than the model group
[2]; 1, 5 and 10 μM
  anti-H2O2 injury effect (protection rate): concentration-dependent
[3]; fold change ≤1/1.5, p <0.05
  proteins downregulated vs. M group: 231 proteins
[3]; fold change ≥1.5, p <0.05
  proteins upregulated vs. M group: 131 proteins
[3]; vs. M group
  KEGG pathway regulation: downregulated the ribosome pathway and upregulated the lysosome pathway
  changed protein expression located at the cytoplasm: 42.54%
  changed protein expression located at the nucleus: 30.39%
[4]; spiked 40 ng/mL
  10h in auto-sampler vials RE: -12.50%
  6h at room temperature RE: -2.50%
  Freeze-thaw stability (three cycles) RE: 1.50%
  Long-term stability (-80℃,15 days) RE: -9.50%
[4]; spiked 400 ng/mL
  10h in auto-sampler vials RE: 1.61%
  6h at room temperature RE: 3.65%
  Freeze-thaw stability (three cycles) RE: 2.65%
  Long-term stability (-80℃,15 days) RE: 0.30%
[4]; spiked 10000 ng/mL
  10h in auto-sampler vials RE: 1.41%
  6h at room temperature RE: 1.55%
  Freeze-thaw stability (three cycles) RE: 2.30%
  Long-term stability (-80℃,15 days) RE: 0.98%
[5]
  Stability RSD: 2.76%

## O=Cc1ccc(O)cc1 [p-HBA, p-hydroxybenzaldehyde]
[1]; [6]
  detection in rat plasma: can be detected
[1]; behind 15 min after i.v. low dose administration (1 ml/kg of SI)
  detection in rat plasma: can’t be detected
[1]; plasma, 2 ml/kg
  AUC(0-inf): 23.4 ± 5.21 ng·h/mL
  AUC(0-t): 20.1 ± 4.4 ng·h/mL
  Cmax: 44.7 ± 5.13 ng/mL
  MRT inf: 40.2 ± 6.6 min
  MRT last: 25.8 ± 2.4 min
  Vd: 0.35 ± 0.04 L/kg
  clearance: 8.83 mL/min/kg
  half-life: 28.8 ± 6.6 min
[1]; plasma, 4 ml/kg
  AUC(0-inf): 44 ± 45.2 ng·h/mL
  AUC(0-t): 35.2 ± 31.1 ng·h/mL
  Cmax: 74.3 ± 2.52 ng/mL
  MRT inf: 31.8 ± 31.8 min
  MRT last: 19.2 ± 15 min
  Vd: 0.34 ± 0.09 L/kg
  clearance: 16.5 mL/min/kg
  half-life: 23.4 ± 21 min
[1]
  detected mean maximum plasma concentration: 0.074 μg/mL and 0.61 μM
[2]; 0.61 μM, preliminary test at maximum detected plasma concentration
  protection: absence of protection
[4]; spiked 40 ng/mL
  10h in auto-sampler vials RE: -2.50%
  Freeze-thaw stability (three cycles) RE: 1.00%
  Long-term stability (-80℃,15 days) RE: 14.50%
[4]; spiked 400 ng/mL
  10h in auto-sampler vials RE: 0.63%
  6h at room temperature RE: -3.70%
  Freeze-thaw stability (three cycles) RE: 4.05%
  Long-term stability (-80℃,15 days) RE: 0.45%
[4]; spiked 10000 ng/mL
  10h in auto-sampler vials RE: 4.23%
  6h at room temperature RE: -3.91%
  Freeze-thaw stability (three cycles) RE: -3.10%
  Long-term stability (-80℃,15 days) RE: 3.02%
[5]
  Stability RSD: 4.11%

Source: PMC9727182, “Identification of pharmacokinetic markers for safflower injection using a combination of system pharmacology, multicomponent pharmacokinetics, and quantitative proteomics study” (Frontiers in Pharmacology, 2022)
